Measured values: US11166924B2, “N-methyl-d-aspartate receptor allosteric modulators and methods for their use” (Qingdao Primedicine Pharmaceutical Company, Ltd., priority 2016, dated 2021)

Key:
GluN1^R115E/GluN2A = target: T1, GluN1^R115E/GluN2A (Rattus norvegicus, UniProt P35439+Q00959, R115E); experiment: Patch clamp in HEK293 cells expressing mutant GluN1 R115E/GluN2A; assay type: cell-based
T1 construct: expressed in transfected cells; host or cells: HEK293
Procedure: (§1) Whole cell patch-clamp recordings were performed under voltage-clamp mode using an Axopatch 200B or 1D patch-clamp amplifier (Molecular Devices). Whole-cell currents were recorded at a holding potential of −60 mV unless indicated elsewhere, and signals were filtered at 2 kHz, digitized at 10 kHz (Digidata 1322A). Recording pipettes (3-5 MΩ) were filled with intracellular solution containing (mM): CsCl 140, HEPES 10, Mg-ATP 4, QX-314 5, pH 7.20; osmolarity, 290-295 mOsm. BAPTA (10 mM) was added in the intracellular solution (unless otherwise specified). The coverslips were continuously superfused with extracellular solution containing (mM): NaCl 140, KCl 5.4, HEPES 10, CaCl2 1.3, glucose 20, pH 7.4; osmolarity, 305-315 mOsm. NMDA-induced currents were applied by NMDA through perfusion fast-step (Warner Instruments). With perfusion fast-step system, NMDA application was achieved by using a two-square barrel glass tubing and depending on the age of the cultured neurons, CNQX (10 μM), TTX (0.5 μM) or BIC (10 μM) were added in the extracellular solution to minimize the activation of ionotropic glutamate receptors and voltage-gated sodium channels, respectively. All experiments were performed at room temperature. Recordings from at least six HEK293 cells/neurons were performed for all active compounds. […]

[1] = target: T2, GluN2A component of NMDAR currents in hippocampal slices (Mus musculus, UniProt P35436+P35438); experiment: Slice recordings, GluN2A component of synaptic NMDAR currents; settings: FIG. 18
T2 construct: from tissue; host or cells: mouse hippocampal slices, CA1 pyramidal neurons
Description: 6-8 week old C57/Bl6 mice or rats underwent cervical dislocation followed by decapitation. The brain was immediately transferred to an ice cold NMDG-based cutting solution consisting of: (in mM): 120 NMDG, 2.5 KCl, 1.2 NaH2PO4, 25 NaHCO3, 1.0 CaCl2, 7.0 MgCl2, 2.4 Na-pyruvate, 1.3 Na-ascorbate, 20 D-glucose with pH adjusted to 7.35 using HCl acid (unless stated, all chemicals and drugs were purchased from Sigma or BioShop, Canada). The hippocampus was dissected out and transverse hippocampal slices (400 μm) were obtained using a manual tissue chopper (Stoelting, Wood Dale, Ill., USA). Slices recovered in a heated (30° C.) incubating chamber for 1 hr which contained ACSF composed of (in mM): 124 NaCl, 3 KCl, 1.25 NaH2PO4, 1 MgSO47H2O, 2 CaCl2), 26 NaHCO3 and 15 D-glucose which was bubbled continuously with carbogen (95% O2/5% CO2) (pH to 7.3). After 30 additional minutes at room temperature, slices were transferred to a submerged recording chamber and were perfused continuously with carbogenated ACSF (2-3 ml/min). Whole-cell recordings of CA1 pyramidal neurons were performed using the “blind” method with a MultiClamp 700B amplifier. EPSCs (excitatory post synaptic currents) were elicited by stimulating the SC pathway. For isolation of NMDAR currents, cells were voltage clamped at +40 mV. […]

GluN1/GluN2A^I176Y = target: T3, GluN1/GluN2A^I176Y (Rattus norvegicus, UniProt P35439+Q00959, I176Y); experiment: Patch clamp in HEK293 cells expressing mutant GluN1/GluN2A I176Y; assay type: cell-based
T3 construct: expressed in transfected cells; host or cells: HEK293
Procedure: as §1

pCREB = pCREB levels in hippocampal and cortical tissue after i.v. injection; assay type: in vivo, rat; settings: 1 mg/kg i.v., 1 h post-treatment
Procedure: Brain tissues or cultured cells were lysed on ice in the lysis buffer and then the solution was centrifuged at 14,000 rpm for 10 min at 4° C. Next, the supernatant was collected and protein concentrations were determined using a BCA protein assay kit (Thermo Scientific, 23227). Equal amount of protein samples were mixed with 4 times sample buffer, boiled at 100° C. for 5 min, and separated on 10% sodium dodecyl sulphate-polyacrylamide gel electrophoresis (SDS-PAGE). Proteins were then transferred to Immobilon-PTM polyvynilidene fluoride (PVDF) membranes (Bio-Rad, 162-0177). The membranes were blocked with 5% non-fat milk in Tris-buffered saline containing 0.1% Tween-20 (TBST) for 1 hour at room temperature, and then incubated overnight at 4° C. with primary antibody. After washing 3×5 min in TBST, protein was visualized in the Bio-Rad Imager using ECL Western blotting substrate (Pierce, 32016). For the detection of phospho-CREB, samples prepared in the same day were used. The polyvinylidene difluoride membrane (Millipore, Bedford, Mass., USA) was incubated with primary antibody against phospho-CREB (Ser133) (Cell Signaling Technology, Beverly, Mass.). […] The band density of each protein was quantified by the Bio-Rad Quantity One software and the relative optical density was analyzed relative to loading total-CREB on the same membrane. […]

T1 sequence (Q00959 23-1464, other chains not shown): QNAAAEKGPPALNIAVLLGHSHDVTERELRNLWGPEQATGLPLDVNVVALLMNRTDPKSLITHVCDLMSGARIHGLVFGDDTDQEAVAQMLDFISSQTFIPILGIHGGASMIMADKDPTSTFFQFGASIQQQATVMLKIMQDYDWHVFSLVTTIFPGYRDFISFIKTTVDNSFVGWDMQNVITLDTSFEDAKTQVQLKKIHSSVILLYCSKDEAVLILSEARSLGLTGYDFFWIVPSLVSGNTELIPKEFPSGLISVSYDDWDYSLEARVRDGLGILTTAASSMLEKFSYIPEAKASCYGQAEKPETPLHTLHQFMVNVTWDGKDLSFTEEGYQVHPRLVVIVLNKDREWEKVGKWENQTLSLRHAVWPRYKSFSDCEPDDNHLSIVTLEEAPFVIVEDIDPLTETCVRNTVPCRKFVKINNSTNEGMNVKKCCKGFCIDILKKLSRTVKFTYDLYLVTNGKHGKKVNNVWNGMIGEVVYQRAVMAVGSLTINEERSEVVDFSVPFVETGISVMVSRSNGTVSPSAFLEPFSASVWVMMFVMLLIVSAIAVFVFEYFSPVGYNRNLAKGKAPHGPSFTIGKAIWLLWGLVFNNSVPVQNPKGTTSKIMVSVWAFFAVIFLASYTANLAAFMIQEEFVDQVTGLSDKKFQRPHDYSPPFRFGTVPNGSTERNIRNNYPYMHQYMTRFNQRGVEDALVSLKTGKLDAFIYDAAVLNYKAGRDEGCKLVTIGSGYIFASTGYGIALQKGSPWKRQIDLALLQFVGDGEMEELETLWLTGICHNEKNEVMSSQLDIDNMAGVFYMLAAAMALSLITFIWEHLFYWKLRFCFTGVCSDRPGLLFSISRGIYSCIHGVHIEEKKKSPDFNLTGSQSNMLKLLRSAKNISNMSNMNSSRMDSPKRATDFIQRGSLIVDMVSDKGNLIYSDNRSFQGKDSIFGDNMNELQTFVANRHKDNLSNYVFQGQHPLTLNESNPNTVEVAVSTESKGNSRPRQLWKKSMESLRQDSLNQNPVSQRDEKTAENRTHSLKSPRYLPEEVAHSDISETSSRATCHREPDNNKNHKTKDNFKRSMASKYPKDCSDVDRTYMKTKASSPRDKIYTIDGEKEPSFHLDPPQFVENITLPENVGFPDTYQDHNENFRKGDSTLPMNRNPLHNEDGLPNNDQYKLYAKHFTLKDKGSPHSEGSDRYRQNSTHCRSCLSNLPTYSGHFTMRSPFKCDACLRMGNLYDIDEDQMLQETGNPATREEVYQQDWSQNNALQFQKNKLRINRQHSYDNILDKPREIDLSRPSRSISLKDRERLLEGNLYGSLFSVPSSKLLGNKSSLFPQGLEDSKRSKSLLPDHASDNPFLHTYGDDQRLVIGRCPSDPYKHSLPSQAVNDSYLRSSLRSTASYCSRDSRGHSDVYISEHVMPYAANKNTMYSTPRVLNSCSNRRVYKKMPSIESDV
T3 sequence (Q00959 23-1464 I176Y, other chains not shown): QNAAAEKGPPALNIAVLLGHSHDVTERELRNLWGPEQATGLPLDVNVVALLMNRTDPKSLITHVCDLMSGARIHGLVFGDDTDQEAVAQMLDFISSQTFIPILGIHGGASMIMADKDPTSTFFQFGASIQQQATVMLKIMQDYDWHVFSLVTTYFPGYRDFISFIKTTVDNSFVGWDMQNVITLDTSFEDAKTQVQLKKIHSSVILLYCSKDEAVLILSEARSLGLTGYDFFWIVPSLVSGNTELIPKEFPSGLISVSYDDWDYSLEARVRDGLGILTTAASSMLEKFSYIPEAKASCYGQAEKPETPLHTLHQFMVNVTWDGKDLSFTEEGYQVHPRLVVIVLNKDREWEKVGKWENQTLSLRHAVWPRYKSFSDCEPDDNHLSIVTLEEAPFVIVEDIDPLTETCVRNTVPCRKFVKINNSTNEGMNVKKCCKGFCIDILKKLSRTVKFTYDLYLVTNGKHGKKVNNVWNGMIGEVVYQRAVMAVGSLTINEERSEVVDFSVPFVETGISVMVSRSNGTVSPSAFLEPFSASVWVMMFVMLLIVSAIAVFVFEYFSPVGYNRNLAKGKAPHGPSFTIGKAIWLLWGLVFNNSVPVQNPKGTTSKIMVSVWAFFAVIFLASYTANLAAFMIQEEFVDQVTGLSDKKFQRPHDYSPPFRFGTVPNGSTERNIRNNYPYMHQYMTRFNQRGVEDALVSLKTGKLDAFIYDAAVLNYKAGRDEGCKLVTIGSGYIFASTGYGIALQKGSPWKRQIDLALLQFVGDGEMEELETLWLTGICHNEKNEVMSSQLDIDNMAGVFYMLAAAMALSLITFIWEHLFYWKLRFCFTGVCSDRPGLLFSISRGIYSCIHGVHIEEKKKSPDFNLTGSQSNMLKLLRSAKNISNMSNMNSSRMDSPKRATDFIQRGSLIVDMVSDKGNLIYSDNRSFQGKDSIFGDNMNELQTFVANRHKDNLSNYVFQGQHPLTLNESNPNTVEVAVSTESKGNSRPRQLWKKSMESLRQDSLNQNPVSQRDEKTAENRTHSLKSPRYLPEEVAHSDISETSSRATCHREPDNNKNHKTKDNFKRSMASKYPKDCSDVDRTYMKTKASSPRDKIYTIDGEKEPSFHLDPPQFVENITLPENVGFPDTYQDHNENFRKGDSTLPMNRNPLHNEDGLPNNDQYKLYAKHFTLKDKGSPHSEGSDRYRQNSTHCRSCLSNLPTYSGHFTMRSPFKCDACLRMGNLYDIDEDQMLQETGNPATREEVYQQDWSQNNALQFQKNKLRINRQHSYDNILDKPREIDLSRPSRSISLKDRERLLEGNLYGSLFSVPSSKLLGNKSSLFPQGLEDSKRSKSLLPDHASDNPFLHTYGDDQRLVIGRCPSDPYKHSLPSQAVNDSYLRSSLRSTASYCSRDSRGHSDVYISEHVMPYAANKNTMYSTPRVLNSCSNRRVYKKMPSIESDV
T2 sequence (P35436 23-1464, other chains not shown): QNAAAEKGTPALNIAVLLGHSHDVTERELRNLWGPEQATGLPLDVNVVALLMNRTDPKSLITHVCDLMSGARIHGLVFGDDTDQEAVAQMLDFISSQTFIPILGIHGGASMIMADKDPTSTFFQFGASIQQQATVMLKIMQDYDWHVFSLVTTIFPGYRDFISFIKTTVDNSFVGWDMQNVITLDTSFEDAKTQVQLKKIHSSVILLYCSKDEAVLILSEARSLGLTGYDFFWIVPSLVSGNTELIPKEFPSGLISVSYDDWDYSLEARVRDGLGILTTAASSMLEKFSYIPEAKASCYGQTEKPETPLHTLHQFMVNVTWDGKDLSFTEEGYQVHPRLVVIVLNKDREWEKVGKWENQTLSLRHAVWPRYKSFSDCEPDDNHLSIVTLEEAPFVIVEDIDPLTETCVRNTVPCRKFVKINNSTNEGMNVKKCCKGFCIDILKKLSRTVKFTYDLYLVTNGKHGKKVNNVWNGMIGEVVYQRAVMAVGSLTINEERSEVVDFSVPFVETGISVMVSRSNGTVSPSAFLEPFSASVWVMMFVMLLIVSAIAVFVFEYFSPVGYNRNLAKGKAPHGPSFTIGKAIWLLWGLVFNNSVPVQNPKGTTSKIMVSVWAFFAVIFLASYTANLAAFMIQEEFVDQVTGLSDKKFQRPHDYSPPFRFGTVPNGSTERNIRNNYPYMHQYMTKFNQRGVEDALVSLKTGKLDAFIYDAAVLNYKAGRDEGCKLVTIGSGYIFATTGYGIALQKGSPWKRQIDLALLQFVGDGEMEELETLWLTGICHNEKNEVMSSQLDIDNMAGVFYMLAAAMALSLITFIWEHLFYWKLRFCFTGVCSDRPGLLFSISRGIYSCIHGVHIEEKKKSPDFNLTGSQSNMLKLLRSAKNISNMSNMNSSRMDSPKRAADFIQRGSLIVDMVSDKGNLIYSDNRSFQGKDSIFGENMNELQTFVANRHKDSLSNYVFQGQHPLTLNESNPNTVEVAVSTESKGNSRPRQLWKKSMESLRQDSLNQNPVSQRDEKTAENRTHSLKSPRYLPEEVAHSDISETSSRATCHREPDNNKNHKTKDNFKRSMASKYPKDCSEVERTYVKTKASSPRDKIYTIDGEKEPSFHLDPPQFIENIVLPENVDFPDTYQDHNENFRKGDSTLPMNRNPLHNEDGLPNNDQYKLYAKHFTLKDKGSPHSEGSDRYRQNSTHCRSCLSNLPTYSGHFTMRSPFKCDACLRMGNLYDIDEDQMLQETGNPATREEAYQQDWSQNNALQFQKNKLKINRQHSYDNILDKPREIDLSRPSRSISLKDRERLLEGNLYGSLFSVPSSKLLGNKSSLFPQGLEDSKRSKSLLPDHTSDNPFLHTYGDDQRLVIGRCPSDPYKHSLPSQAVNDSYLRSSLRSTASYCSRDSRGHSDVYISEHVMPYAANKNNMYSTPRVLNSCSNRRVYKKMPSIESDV

## CCOc1cc(Cl)c(Cl)c(/C=N/NC(=O)c2ccccc2Br)c1O [Npam43, (E)-2-bromo-N′-(2,3-dichloro-5-ethoxy-6-hydroxybenzylidene)benzohydrazide]
GluN1^R115E/GluN2A; Table 3
  Relative potentiation: 255 ± 3.5%
GluN1^R115E/GluN2A; normalized to wild-type
  Net Difference potentiation: +22.0 ± 0.40%
[1]
  Effect on GluN2A component of NMDAR currents: selectively potentiated the GluN2A component of NMDAR currents
GluN1/GluN2A^I176Y; Table 3
  Relative potentiation: 189 ± 3.8%
GluN1/GluN2A^I176Y; normalized to wild-type
  Net Difference potentiation: −10.1 ± 0.12%
pCREB
  pCREB levels in hippocampal and cortical tissue: elevated
